How the values were obtained:
Assay type in all cases: cell-based, human
[1] = test system: patient-derived CRC cells; assay: survival of patient-derived CRC cells, luminescence dose-response; details: in vitro, ADAR1-knockdown vs wild-type patient-derived CRC cells
Experimental: A, Survival of wild-type ADAR1 (black) and ADAR1-knockdown (gray) patient-derived CRC cells after treatment with 5-AZA-CdR. Luminescence signal was normalized, and dose-response curves and EC50 values were calculated using a nonlinear regression curve fit.
Finally, we sought to investigate whether ADAR1 inhibition would synergize with epigenetic therapy to increase the anti-tumour response. […] To examine the potential synergy in vivo, we injected ADAR1^KDA/B or wildtype patient-derived xenograft CRC cells subcutaneously into immune-deficient NOD.Cg-Prkdc (NSG) mice, and treated the mice with 5-AZA-CdR or vehicle (PBS) (FIG. 12B and FIG. 13A). […] Thus, ADAR1 inhibition in human cancer cells profoundly sensitizes tumours to 5-AZA-CdR treatment in vivo.

MAVS = MAVS aggregation by SDS-AGE; details: ADAR1-depleted, mitochondrial fraction of cell lysates
Description: J, MAVS aggregation analyzed by SDS-AGE and MAVS protein level analyzed by SDS-PAGE. VDAC served as a loading control in SDS-PAGE.
(§1) Based on these findings, we hypothesized that ADAR1 depletion would synergize with the viral mimicry response induced by DNMTi treatment. To assess how ADAR1 depletion affects 5-AZA-CdR treated samples, we performed RNA-seq analyses in patient-derived CRC cells. […] As a molecular read-out of dsRNA pattern recognition activation, we measured MAVS aggregation in the mitochondrial fraction of cell lysates^34. […] Taken together, our findings establish that ADAR1 acts as a negative feedback loop, restricting the viral mimicry response induced by DNMTi treatment in cancer cells.

ADAR1 = assay: qPCR analysis of ADAR1 mRNA level and isoforms
Experimental: C, qPCR analysis of total ADAR1 mRNA level after treatment with 5-AZA-CdR (300 nM, for 5 days) or transfection with 100 ng ml-1 poly(I:C) over a course of 24 days. Cells were washed out at day 5 and seeded in drug-free medium. Data are mean±s.e.m.****P<0.0001, Sidak-corrected two-way ANOVA.
A, ADAR1 isoforms (p110 and p150) relative expression analysed by qPCR. LACZ denotes ADAR1WT; PIC denotes 100 ng/ml poly (I:C) for 5 days; AZA denotes 300 nM 5-AZA-CdR for 5 days). Data are mean±s.e.m. (n=3 from three independent experiments). ***P<0.001, ****P<0.0001, Tukey-corrected two-way ANOVA.
To test this hypothesis, we first determined if ADAR1 depletion affects dsRNA formation by IR-Alus in untreated patient-derived CRCs. We generated ADAR1 knock-down CRCs using two different hairpin RNAs (ADAR1^KDA/B) and confirmed depletion of both the constitutively expressed (p110) and interferon-inducible (p150) ADAR1 isoforms (FIG. 8A). […] To determine if MDA5 ligands also increase upon ADAR1 depletion, we performed the MDA5 protection assay followed by RNA-Seq, as above. […] Again, these immunogenic Alus were primarily IR-Alu pairs unidirectionally transcribed in either the sense (+/+) or antisense (−/−) direction and induced upon ADAR1 depletion (FIG. 9C-J).
Next, we tested whether epigenetic therapy can induce and activate ADAR1 editing activity.

[2] = test system: interferon stimulated genes (ISG15, DDX58 and IRF7); assay: interferon response / ISG expression by RNA-seq GSEA and qRT-PCR in patient-derived CRC cells
Description: H, Geneset Enrichment Analysis showing an enrichment of the geneset ‘Hallmark_Interferon_Alpha_Response’ in ADAR1^KD 5-AZA-treated cells compared to ADAR1^WT 5-AZA-CdR treated cells.
I, Interferon-responsive geneset enrichment score in mock-treated ADAR1^WT, 5-AZA-CdR-treated ADAR1^WT, mock-treated ADAR1^KD, and 5-AZA-CdR-treated ADAR1^KD conditions. Samples were collected 5, 14, and 24 days post-treatment.
B, Kinetics of interferon stimulated genes (ISG15, DDX58 and IRF7) relative expression in ADAR1^WT (Black) and ADAR1^KD (Gray) patient-derived colorectal cancer cells (CRCs) treated with 5-AZA-CdR analyzed by qRT-PCR. Data are mean±s.e.m. (n=3 from three independent experiments). *P<0.05, **P<0.01, ****P<0.0001, Sidak-corrected two-way ANOVA.
C, Interferon-responsive gene expression in ADAR1^WT mock-treated (MT), 5-AZA-CdR treated, ADAR1^KD NT and ADAR1^KD p(I:C) transfected samples collected 5 days, 14 days and 24 days post-treatment, measured by RNA-seq.
D, Kinetics of interferon stimulated genes (ISG15, DDX58 and IRF7) relative expression in ADAR1^WT (Black) and ADAR1^KD (Gray) patient-derived CRCs transfected with p(I:C), analyzed by qRT-PCR. Data are mean±s.e.m. **P<0.01, ****P<0.0001, Sidak-corrected two-way ANOVA.
F, Interferon stimulated genes (ISG15, DDX58 and IRF7) relative expression in CTRL (LUC) (Black) and ADAR1^p150CE (Gray) patient-derived CRCs treated with 5-AZA-CdR, analyzed by qRT-PCR. Data are mean±s.e.m. **P<0.01, ***P<0.001, Sidak-corrected two-way ANOVA.
G, IFN enrichment score in CTRL(LUC) Mock-treated, 5-AZA-CdR treated, ADAR1-p150 overexpressing NT and ADAR1-p150 overexpressing 5-AZA-CdR treated samples collected 5 days post-treatment and measured by RNA-seq.
as §1

`Nc1ncn([C@H]2C[C@H](O)[C@@H](CO)O2)c(=O)n1` [5-AZA-CdR] was tested, and the “reduction of EC50 by ADAR1 knock-down” value [1] was “four to six-fold reduction”, the “MAVS activation (aggregation)” value (MAVS) was “enhanced MAVS activation” and the ADAR1 expression (ADAR1; patient-derived CRCs, 300 nM for 5 days) was “up-regulated ADAR1 expression”. For the same compound, the “duration of ADAR1 up-regulation after drug withdrawal” value (ADAR1; washed out at day 5, drug-free medium, 24 days course) was “sustained for about fourteen days after drug withdrawal”, the “type I interferon response (GSEA)” value ([2]; ADAR1-depleted vs wild-type samples, both treated with 5-AZA-CdR) was “the most enriched pathway” and the “persistence of enhanced interferon/ISG response” value ([2]; ADAR1-depleted vs wild-type, after initial treatment) was “persisted as long as twenty-four days after initial treatment”. The “viral mimicry (expression of ISGs and dsRNA formation)” value ([2]; CRC cells overexpressing ADAR1p150) was “rescues the ability of 5-AZA-CdR to induce viral mimicry”.
